Residues, ends and D or L forms follow the SMILES beside them. *: point of attachment. Bz = O=C(c1ccccc1)*

In experiment [1] the target is T1, Angiotensin I-converting enzyme (ACE, CD143) (Homo sapiens, UniProt P12821, S362W).
T1 construct: full-length somatic ACE, CHO cell lysate
Put plainly: fluorimetric hydrolysis assay (His-Leu product), […] substrate. The format is cell-based.

Experiment [2] has as its target T2, Angiotensin I-converting enzyme (ACE, CD143) (Homo sapiens, UniProt P12821).
T2 construct: full-length somatic ACE, CHO cell lysate
The description is as above. The experiment is classed as cell-based.

T2 sequence (P12821 30-1306): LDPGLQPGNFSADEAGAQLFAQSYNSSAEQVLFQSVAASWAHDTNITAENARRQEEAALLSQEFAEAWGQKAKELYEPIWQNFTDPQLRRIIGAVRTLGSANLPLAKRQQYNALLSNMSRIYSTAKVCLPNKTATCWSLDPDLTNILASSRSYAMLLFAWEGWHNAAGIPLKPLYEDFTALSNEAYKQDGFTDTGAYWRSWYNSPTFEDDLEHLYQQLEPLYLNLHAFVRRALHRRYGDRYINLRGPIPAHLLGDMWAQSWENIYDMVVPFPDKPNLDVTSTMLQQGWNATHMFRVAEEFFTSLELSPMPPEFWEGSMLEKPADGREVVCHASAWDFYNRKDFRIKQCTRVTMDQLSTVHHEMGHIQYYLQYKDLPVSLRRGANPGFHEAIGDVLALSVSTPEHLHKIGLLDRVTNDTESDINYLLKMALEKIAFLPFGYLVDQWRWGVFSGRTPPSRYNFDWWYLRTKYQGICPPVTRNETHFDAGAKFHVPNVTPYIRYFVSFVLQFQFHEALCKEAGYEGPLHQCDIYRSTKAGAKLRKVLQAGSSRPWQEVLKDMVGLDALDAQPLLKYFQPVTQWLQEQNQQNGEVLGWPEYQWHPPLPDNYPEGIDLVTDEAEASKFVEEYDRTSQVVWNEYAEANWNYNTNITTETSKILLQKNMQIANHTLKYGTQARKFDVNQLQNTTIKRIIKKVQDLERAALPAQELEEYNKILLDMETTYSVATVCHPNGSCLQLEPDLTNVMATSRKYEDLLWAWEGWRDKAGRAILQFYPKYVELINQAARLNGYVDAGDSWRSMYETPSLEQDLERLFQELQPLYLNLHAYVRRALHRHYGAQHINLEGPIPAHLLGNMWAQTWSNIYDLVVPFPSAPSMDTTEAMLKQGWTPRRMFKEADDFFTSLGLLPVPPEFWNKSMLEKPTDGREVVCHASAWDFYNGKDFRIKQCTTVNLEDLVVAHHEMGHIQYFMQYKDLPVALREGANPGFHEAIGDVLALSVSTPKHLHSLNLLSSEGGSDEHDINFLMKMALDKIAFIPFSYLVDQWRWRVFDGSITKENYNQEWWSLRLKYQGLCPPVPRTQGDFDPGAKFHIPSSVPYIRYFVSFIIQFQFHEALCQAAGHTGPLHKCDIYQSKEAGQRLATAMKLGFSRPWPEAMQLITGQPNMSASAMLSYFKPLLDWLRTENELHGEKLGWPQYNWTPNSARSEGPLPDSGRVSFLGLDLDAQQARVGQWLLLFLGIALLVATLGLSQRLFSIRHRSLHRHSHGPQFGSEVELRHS
T1 sequence (P12821 30-1306 S362W): as the sequence (P12821 30-1306) above, with S333W counted along it

For `CC(C)C[C@H](NC(=O)[C@H](Cc1cnc[nH]1)NC(=O)CNC(=O)c1ccccc1)C(=O)O` [Hip-His-Leu] (Bz-Gly-His-Leu-OH), the “fluorimetric hydrolysis assay (His-Leu product), 5 mM substrate” value in experiment [1] was “stably expressing WT and mutant ACE was determined with substrates Hip-His-Leu and Z-Phe-His –Leu”; in experiment [2], “stably expressing WT and mutant ACE was determined with substrates Hip-His-Leu and Z-Phe-His –Leu”.
